Results taken from patent US5750354A, “Lipoxin transport system and uses therefor” (priority 1994, dated 1998).
Where “and” joins values, the source holds several entries; their conditions need not be identical. Equal values may be shown once. Entries after “also recorded” stand apart in the source; their conditions may differ. Read-outs that look alike come from different tables or passages of the source.

Assays:
lipoxin transport system [1] = assay: [3H]LXA4 influx into human neutrophils (unidirectional tracer flux); conditions: for [3H]LXA4 Influx in presence of eicosanoid / IC50: uptake at 10 and 20 min; for initial [3H]LXA4 influx rate in presence of drug: 5 nM LXA4; for effect on uptake of [3H]LXA4: each at 0.2-0.5 mM; for IC50: read-out: K0.5, concentration at which 50% of lipoxin transport is inhibited, drug 0-500 μM, Michaelis-Menten inhibition kinetics
lipoxin transport system [2] = conditions: not told
lipoxin transport system [3] = assay: Irreversible inhibition of [3H]LXA4 influx after pretreatment of neutrophils with sulfhydryl-reactive agents; assay type: cell-based, human
human neutrophils [4] = assay: [3H]LXA4 methyl ester influx into human neutrophils; assay type: cell-based; conditions: for effect of drugs on [3H]LXA4 ME influx: DISA 0.5 mM, PCP 0.4 mM, mersalyl 0.5 mM
Protocol: Incubations were performed at 37° C. in capped, plastic tubes (Falcon Plastics, Oxnard, Calif.) under various experimental conditions (neutrophils 15-20×10^6 /ml). […] At stated intervals, duplicate aliquots of the cell suspensions were layered onto 0.5 ml of silicone oil (Versilube F-5, General Electric Corp., Waterford, N.Y.) contained in 1.5 ml plastic tubes and centrifuged for 1 min at 8,000 g in a microcentrifuge (Beckman Instruments, Fullerton, Calif.).
The aqueous and oil phases were aspirated and discarded. […] Influx is expressed here as fmol/10^6 cells/min whereas flux rates in all previous work from our laboratory (L.S.) have been reported in meq/liter of cell water.min.
(§1) Influx rates were calculated by fitting the data points to a single exponential equation (Eq. 1). Results have been taken from three experiments based upon duplicate determinations. […] Specific binding was taken as the difference between total and non-specific binding. […] Results are from three separate experiments, each performed in triplicate.

[5] = molecular target: T1, specific lipoxin receptors (Homo sapiens, UniProt P25090); assay: [3H]LXA4 ligand binding to human neutrophils
T1 sequence (P25090 1-351): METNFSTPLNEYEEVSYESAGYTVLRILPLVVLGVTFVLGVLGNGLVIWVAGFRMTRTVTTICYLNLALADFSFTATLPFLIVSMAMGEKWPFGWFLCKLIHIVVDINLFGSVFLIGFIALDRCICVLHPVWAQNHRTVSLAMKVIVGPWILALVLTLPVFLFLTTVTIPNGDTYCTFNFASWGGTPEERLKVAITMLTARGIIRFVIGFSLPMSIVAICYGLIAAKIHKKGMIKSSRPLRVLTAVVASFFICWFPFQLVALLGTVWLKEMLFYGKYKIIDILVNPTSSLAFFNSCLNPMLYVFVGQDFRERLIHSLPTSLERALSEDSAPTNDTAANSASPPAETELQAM
Protocol: as §1

human neutrophils [6] = tested on: human neutrophils
[7] = combined: 0.5 mM DISA, 0.4 mM PCP, pHo 8.40
[8] = combined: 0.5 mM mersalyl, pHo 6.40

O=C(O)c1ccccc1Nc1ccccc1 [diphenylamine-2-carboxylate, diphenylamine-2-carboxylic acid]
inhibition of [3H]LXA4 influx (lipoxin transport system [1]; 0.5 mM drug): > 85%

CCCCC/C=C\C\C=C/C=C/C=C/[C@@H](SC[C@H](N)C(=O)NCC(=O)O)[C@@H](O)CCCC(=O)O [LTD4, (5S)-hydroxy-(6R)-S-cysteinylglycyl-7,9-trans-11,14-ciseicosatetraenoic acid]
transport by the lipoxin transport system (lipoxin transport system [2]): not transported
[3H]LXA4 Influx in presence of eicosanoid (lipoxin transport system [1]; eicosanoid 10 nM): 0.63 ± 0.03 fmol/10^6 cells/min
[3H]LXA4 Influx in presence of eicosanoid (lipoxin transport system [1]; eicosanoid 30 nM): 0.59 ± 0.04 fmol/10^6 cells/min
[3H]LXA4 Influx in presence of eicosanoid (lipoxin transport system [1]; eicosanoid 100 nM): 0.61 ± 0.03 fmol/10^6 cells/min

CCCCCCCCCCCCCC(=O)O[C@@H]1[C@@H](C)[C@@]2(O)[C@@H](C=C(CO)C[C@]3(O)C(=O)C(C)=C[C@@H]23)[C@@H]2C(C)(C)[C@]12OC(C)=O [PMA, phorbol myristate acetate]
increase in initial rate of [3H]LXA4 influx (lipoxin transport system [1]; 100 nM): ~ 4 fold

CCCCC/C=C\C[C@@H](O)/C=C/C=C/C=C\[C@@H](O)CCCC(=O)O [LTB4, (5S,12R)-dihydroxy-6,14-cis-8,10-trans-eicosatetraenoic acid]
transport by the lipoxin transport system (lipoxin transport system [2]): not transported
[3H]LXA4 Influx in presence of eicosanoid (lipoxin transport system [1]; eicosanoid 10 nM): 0.67 ± 0.04 fmol/10^6 cells/min
[3H]LXA4 Influx in presence of eicosanoid (lipoxin transport system [1]; eicosanoid 30 nM): 0.64 ± 0.04 fmol/10^6 cells/min
[3H]LXA4 Influx in presence of eicosanoid (lipoxin transport system [1]; eicosanoid 100 nM): 0.70 ± 0.06 fmol/10^6 cells/min

O=C1OC2(c3ccc(N4C(=O)C=CC4=O)cc31)c1cc(Br)c(O)c(Br)c1Oc1c2cc(Br)c(O)c1Br [Eosin-5-maleimide, eosin-5-maleimide]
% Inhibition of Transport (irreversible) (lipoxin transport system [3]; 0.50 mM, pretreatment 30 min at 4° C., washed, influx at 37° C.): 19 ± 6%

Oc1c(Cl)c(Cl)c(Cl)c(Cl)c1Cl [PCP, pentachlorophenol]
[3H]LXA4 ME Influx in presence of drug (human neutrophils [4]; 0.4 mM drug): 439 ± 63 fmol/10^6 cells/min
effect of drugs on [3H]LXA4 ME influx (human neutrophils [4]): completely resistant
[3H]LXA4 Binding, non-specific, in presence of drug [5]: 0.36 ± 0.04 fmol/10^6 cells
[3H]LXA4 Binding, total, in presence of drug [5]: 1.18 ± 0.04 fmol/10^6 cells
effect on binding of lipoxin to specific receptors [5]: not inhibitable
efflux final value (relative cell content, combined data set) (human neutrophils [6]; [7]): 0.46±0.02
efflux rate coefficient (combined data set) (human neutrophils [6]; [7]): 0.098 ± 0.008 min⁻¹
inhibition of [3H]LXA4 influx (lipoxin transport system [1]; 0.4 mM drug): 97% and > 80%
initial [3H]LXA4 influx rate in presence of drug (lipoxin transport system [1]; 0.4 mM drug): 0.015±0.004 fmol/10^6 cells/min
effect on uptake of [3H]LXA4 (lipoxin transport system [1]): inhibited the uptake
IC50 (lipoxin transport system [1]): 25 ± 5 µM

CCCCC/C=C\C\C=C/C=C/C=C/[C@@H](SC[C@H](NC(=O)CC[C@H](N)C(=O)O)C(=O)NCC(=O)O)[C@@H](O)CCCC(=O)O [LTC4, (5S)-hydroxy-(6R)-S-glutathionyl-7,9-trans-11,14-cis-eicosatetraenoic acid]
transport by the lipoxin transport system (lipoxin transport system [2]): not transported
[3H]LXA4 Influx in presence of eicosanoid (lipoxin transport system [1]; eicosanoid 10 nM): 0.70 ± 0.05 fmol/10^6 cells/min
[3H]LXA4 Influx in presence of eicosanoid (lipoxin transport system [1]; eicosanoid 30 nM): 0.76 ± 0.05 fmol/10^6 cells/min
[3H]LXA4 Influx in presence of eicosanoid (lipoxin transport system [1]; eicosanoid 100 nM): 0.78 ± 0.07 fmol/10^6 cells/min

CNc1ccc2oc(C[C@H]3O[C@@]4(CC[C@H]3C)O[C@H]([C@H](C)C(=O)c3ccc[nH]3)[C@H](C)C[C@H]4C)nc2c1C(=O)O [A23187]
enhancement of lipoxin uptake (lipoxin transport system [1]; 1 μM): ~ 1.5 fold

CCCCC/C=C\C/C=C\C/C=C\C/C=C\CCCC(=O)O [Arachidonic Acid, arachidonic acid]
[3H]LXA4 Influx in presence of eicosanoid (lipoxin transport system [1]; eicosanoid 10 nM): 0.69 ± 0.03 fmol/10^6 cells/min
[3H]LXA4 Influx in presence of eicosanoid (lipoxin transport system [1]; eicosanoid 30 nM): 0.66 ± 0.02 fmol/10^6 cells/min
[3H]LXA4 Influx in presence of eicosanoid (lipoxin transport system [1]; eicosanoid 100 nM): 0.70 ± 0.02 fmol/10^6 cells/min

CCCCC[C@H](O)/C=C/C=C\C=C\C=C\[C@@H](O)[C@@H](O)CCCC(=O)OC [LXA4 ME, lipoxin A4 methyl ester]
[3H]LXA4 ME Influx (human neutrophils [4]; Medium, 5 nM, 37° C., 15 s intervals through 1 min): 535±136 fmol/10^6 cells/min
influx rate relative to LXA4 free acid (human neutrophils [4]; medium alone): 1,000 fold faster
[3H]LXA4 ME Influx (human neutrophils [4]; pHo 6.40): 465 ± 45 fmol/10^6 cells/min
[3H]LXA4 ME Influx (human neutrophils [4]; pHo 8.40): 553 ± 129 fmol/10^6 cells/min

CCCCC[C@H](O)/C=C/[C@H]1[C@H](O)CC(=O)[C@@H]1C/C=C\CCCC(=O)O [PGE2, prostaglandin E2]
[3H]LXA4 Influx in presence of eicosanoid (lipoxin transport system [1]; eicosanoid 10 nM): 0.58 ± 0.03 fmol/10^6 cells/min
[3H]LXA4 Influx in presence of eicosanoid (lipoxin transport system [1]; eicosanoid 30 nM): 0.59 ± 0.03 fmol/10^6 cells/min
[3H]LXA4 Influx in presence of eicosanoid (lipoxin transport system [1]; eicosanoid 100 nM): 0.60 ± 0.03 fmol/10^6 cells/min

O=C(O)CI [iodoacetate, iodoacetic acid]
effect of SH-reactive compounds on [3H]LXA4 influx (lipoxin transport system [1]; 1 mM NEM, 0.4 mM iodoacetate): lacked efficacy; also recorded: do not inhibit

CCCCCCCCCCCCCC(=O)O[C@@H]1[C@@H](C)[C@@]2(O)[C@@H](C=C(CO)C[C@@]3(O)C(=O)C(C)=C[C@@H]23)[C@@H]2C(C)(C)[C@]12OC(C)=O [4-α-PMA]
effect on lipoxin uptake (lipoxin transport system [1]; biologically inactive isomer of PMA): no effect

O=C(O)c1cccnc1Nc1cccc(C(F)(F)F)c1 [niflumate, niflumic acid]
inhibition of [3H]LXA4 influx (lipoxin transport system [1]; 0.2 mM drug): > 85%

N#CC(=Cc1cn(-c2ccccc2)c2ccccc12)C(=O)O [UK-5099, α-cyano-β-(1-phenylindol-3-yl)acrylic acid]
effect on binding of lipoxin to specific receptors [5]: not inhibitable
inhibition of [3H]LXA4 influx (lipoxin transport system [1]; 0.2 mM drug): 95%
initial [3H]LXA4 influx rate in presence of drug (lipoxin transport system [1]; 0.2 mM drug): 0.030±0.009 fmol/10^6 cells/min
effect on uptake of [3H]LXA4 (lipoxin transport system [1]): inhibited the uptake

CCCCC[C@H](O)/C=C/C=C\C/C=C\C/C=C\CCCC(=O)O [15-HETE, (15S)-hydroxy-5,8,11-cis-13-trans-eicosatetraenoic acid]
[3H]LXA4 Influx in presence of eicosanoid (lipoxin transport system [1]; eicosanoid 10 nM): 0.73 ± 0.05 fmol/10^6 cells/min
[3H]LXA4 Influx in presence of eicosanoid (lipoxin transport system [1]; eicosanoid 30 nM): 0.69 ± 0.05 fmol/10^6 cells/min
[3H]LXA4 Influx in presence of eicosanoid (lipoxin transport system [1]; eicosanoid 100 nM): 0.71 ± 0.06 fmol/10^6 cells/min

COC(CNC(=O)c1ccccc1OCC(=O)O)[CH2][Hg][OH] (centres unmarked) [mersalyl]
[3H]LXA4 ME Influx in presence of drug (human neutrophils [4]; 0.5 mM drug): 500 ± 184 fmol/10^6 cells/min
effect of drugs on [3H]LXA4 ME influx (human neutrophils [4]): completely resistant
effect on binding of lipoxin to specific receptors [5]: not inhibitable
[3H]LXA4 Binding, non-specific, in presence of drug ([5]; 0.5 mM drug, + unlabeled LXA4 0.3 μM): 0.39 ± 0.03 fmol/10^6 cells
[3H]LXA4 Binding, total, in presence of drug ([5]; 0.5 mM drug, no unlabeled LXA4): 1.13 ± 0.05 fmol/10^6 cells
% Inhibition of Transport (irreversible) (lipoxin transport system [3]): ~ 65% and 67 ± 5%
efflux final value (relative cell content, combined data) (human neutrophils [6]; [8]): 0.56±0.03
efflux rate coefficient (combined data) (human neutrophils [6]; [8]): 0.079 ± 0.012 min⁻¹
inhibition of [3H]LXA4 influx (lipoxin transport system [1]; 0.5 mM drug): 82% and > 80%
initial [3H]LXA4 influx rate in presence of drug (lipoxin transport system [1]; 0.5 mM drug): 0.10±0.01 fmol/10^6 cells/min
effect on uptake of [3H]LXA4 (lipoxin transport system [1]): inhibited the uptake
IC50 (lipoxin transport system [1]): 112 ± 33 µM
